The test system of one data set is STAT3. In words: Inhibitory effect on IL-6-induced STAT3 phosphorylation in human myeloma cells (in vitro). The data set is classed as cell-based. The note with it: U266B1 human myeloma cells, IL-6 1 ng/mL, pSTAT3 (Y705) by flow cytometry. The method, then:
The inhibitory effect of the test compound on phosphorylation of STAT3 (signal transducer and activator of transcription-3) in human myeloma cells ([…]) induced by interleukin-6 (IL-6) was examined using the modified method of Tochizawa S. et al. (J Immunol Methods. 2006 Jun. 30; 313(1-2): 29-37). In the study, U266B1 cells were seeded in an RPMI 1640 medium containing 10% fetal bovine serum (FBS) in a 12-well plate and incubated at 37° C. for 2 hours in the presence of carbon dioxide. After incubation, IL-6 was added to yield the concentration of 1 ng/mL and the cells were incubated at 37° C. for 15 minutes in the presence of 5% carbon dioxide. After fixation of the cells by the addition of a buffer containing formaldehyde (Lyse/Fix Buffer, BD Biosciences) at room temperature for 10 minutes, the suspension was centrifuged to remove the supernatant and the cells were treated with ice-cold methanol for 10 minutes to improve the permeability of the cell membrane. The cells were centrifuged to remove methanol and washed twice with Dulbecco's phosphate buffered saline (D-PBS) containing 2% fetal bovine serum (FBS). A fluorescence-labeled anti-phosphorylated STAT3 (pSTAT3) antibody (Alexa Fluor 488-labeled anti-pSTAT3 (Y705) antibody, BD Biosciences) was added for staining in an ice bath for 30 minutes.
The cells were washed once with 2% FBS-containing D-PBS and suspended in 2% FBS-containing D-PBS, and the fluorescence intensity was determined using a flow cytometer (FACS Sort, BD Biosciences). The ratio of fluorescence intensity in the test group to the control group (T/C) was determined from the difference in the geometric mean of pSTAT3 fluorescence intensity between the test compound group of each concentration and the non-stimulated control group according to the following equation by defining the difference in the geometric mean of pSTAT3 fluorescence intensity between the IL-6 induced control and the non-stimulated control as 100%. T/C(%)=([…] of pSTAT3 fluorescence intensity in the cells treated with the test compound—geometric mean of pSTAT3 fluorescence intensity in non-stimulated control)/(geometric mean of fluorescence intensity of IL-6-induced pSTAT3 in the control−geometric mean of pSTAT3 fluorescence intensity in non-stimulated control)×100.
The concentration of the test compound inhibiting phosphorylation of STATS at 50% (IC50; concentration of the test compound corresponding to 50% T/C(%)) was determined using T/C(%) values at the respective concentrations and defined as the index for the inhibitory activity.

In data set [1] the test system is human chronic myelocytic leukemia cells (KU812). Kind of data set: Antiproliferative effect on cancer cells (in vitro), WST-8 assay, KU812. Format: cell-based. The note with it: 5 days incubation with test compound. The method, then:
The growth inhibition on human chronic myelocytic leukemia cells (KU812) was determined by a WST-8 assay according to the method of Singh A K, et al. (Cancer Lett. 1996 Oct. 1; 107(1): 109-15.). In this method, KU812 cells were seeded in RPMI 1640 medium containing 10% fetal bovine serum in a 96-well microplate and incubated at 37° C. for 24 hours in the presence of 5% carbon dioxide. Then, the test compound was added and the cells were incubated for another 5 days. After incubation, 15 μL of 5 mM WST-8 (2-(2-methoxy-4-nitrophenyl)-3-(4-nitrophenyl)-5-(2,4-disulfenyl)-2H-tetrazolium, monosodium salt) was added and the cells were incubated for 2 hours. After the 2-hour incubation, 15 μL of 1% SDS (sodium dodecyl sulfate) was added and the optical density was determined at the measurement wavelength of 450 nm and the reference wavelength of 630 nm, and the difference was calculated. The cell growth activity in each well was defined as the value determined by subtracting the OD in the control well not containing cells (the difference in absorbance between 492 nm and 690 nm) from that in the test well.
(§1) The 50% inhibitory concentration (IC50 (nM)) of the test compound was determined by comparing the cell growth activity in the well containing the test compound with that of the control not containing the test compound.
(Tetrazolium assays rely on reduction of a dye to a coloured formazan, in cell work by metabolically active cells.)

In data set [2] the test system is human pancreatic cancer cells (HPAC). In words: Antiproliferative effect on cancer cells (in vitro), sulforhodamine B method, HPAC. The data set is classed as cell-based. The note with it: 5 days incubation with test compound. As to the method:
(§2) Growth inhibition of human hepatic cancer cells (HuH-7) was determined by the sulforhodamine B method based on the method of Skehan P. et al. (J Natl Cancer Inst. 1990 Jul. 4; 82(13): 1107-12). In the study, HuH-7 cells were seeded on DMEM medium containing 10% fetal bovine serum in a 96-well microplate. After 24-hour incubation at 37° C. in the presence of 5% carbon dioxide, the test compound was added and the cells were incubated for another 5 days. After incubation, a trichloroacetic acid solution was added to yield the final concentration of 10% and the cells were left to stand at 4° C. for 1 hour to fix. Then, the cells were washed with water to remove the medium and trichloroacetic acid and dried in the air. The dried cells were stored at 4° C. until they were stained with sulforhodamine B. To each well, 1% acetic acid solution containing 0.4% sulforhodamine B was added and left to stand for 20 to 30 minutes at room temperature. After discarding the supernatant, each well was washed with 1% acetic acid solution, and 10 mM Tris ([…]) solution was added while stirring to elute the dye taken into the cells. Then, the optical density was determined at the measurement wavelength of 492 nm and the reference wavelength of 690 nm, and the difference was calculated. The cell growth activity in each well was defined as the value determined by subtracting the OD in the control well not containing cells (the difference in absorbance between 492 nm and 690 nm) from that in the test well.
as §1
The growth inhibition on human pancreatic cancer cells (HPAC) was also determined by the above method using HPAC instead of HuH-7 and RPMI 1640 medium containing 10% fetal bovine serum instead of the DMEM medium containing 10% fetal bovine serum.
(In general: In SRB staining, fixed cells bind dye roughly in proportion to their protein.)

In data set [3] the test system is human hepatic cancer cells (HuH-7). Kind of data set: Antiproliferative effect on cancer cells (in vitro), sulforhodamine B method, HuH-7. Format: cell-based. The note with it: HuH-7 cells, 5 days incubation with test compound. The method, then:
as §2, §1

Counter-ions that a name gives are not always drawn.

As usually defined, the IC50 is the concentration that inhibits the measured activity by half. One may read the melting point as the temperature of the solid-liquid transition. In turn, `Br.CCCOc1ccc(CN2CCN(C(=O)c3cc4ccc(Oc5ccc(N(C)C(=O)c6ccc(C(F)(F)F)cc6)cn5)cc4n3C)CC2)cc1` [Example 420, N-Methyl-N-(6-{1-methyl-2-[4-(4-propoxybenzyl)piperazine-1-carbonyl]-1H-indol-6-yloxy}pyridin-3-yl)-4-trifluoromethyl-benzamide hydrobromide] showed a melting point of 246 to 248 °C. Also, in the data set on STAT3, the 50% inhibitory concentration (IC50) is less than 10 nM.

For the compound `CCOc1ccc(CN2CCN(C(=O)c3cc4cc(Oc5ccc(N(C)C(=O)c6ccc(C(F)(F)F)cc6)c(C)n5)ccc4n3C)CC2)cc1` [Example 368, N-(6-{2-[4-(4-Ethoxybenzyl)piperazine-1-carbonyl]-1-methyl-1H-indol-5-yloxy}-2-methylpyridin-3-yl)-h=methyl-4-trifluoromethyl-benzamide hydrobromide], the values for the IC50 in data set [1], in data set [2] and in data set [3] were less than 2 nM, less than 70 nM and less than 10 nM, respectively.

As for `Cc1ccc(S(=O)(=O)N(C)c2ccc(Oc3ccc4cc(C(=O)N5CCN(Cc6ccc7c(c6)OC(F)(F)O7)CC5)n(C)c4c3)nc2)cc1.Cl` [Example 526, N-(6-{2-[4-(2,2-Difluorobenzo[1,3]dioxol-5-ylmethyl)piperazine-1-carbonyl]-1-methyl-1H-indol-6-yloxy}pyridin-3-yl)-4,N-dimethyl-benzenesulfonamide hydrochloride], the melting point was 240 to 243 °C. Besides, the 50% inhibitory concentration (IC50) with STAT3 is less than 10 nM.

`CCOc1ccc(CN2CCN(C(=O)c3cc4cc(Oc5ccc(N(C)C(=O)c6ccc(C(F)(F)F)cc6)cn5)ccc4n3C)CC2)cc1.O=C(O)/C=C\C(=O)O` [Example 342, N-(6-{2-[4-(4-Ethoxybenzyl)piperazine-1-carbonyl]-1-methyl-1H-indol-5-yloxy}pyridin-3-yl)-N-methyl-4-trifluoromethylbenzamide maleate] gave a melting point of 131 to 135 °C. This compound also came in with a concentration for half-maximal inhibition (IC50) with STAT3 of less than 10 nM.

Consider `Cn1c(C(=O)N2CCN(Cc3ccc(-c4csnn4)cc3)CC2)cc2ccc(Oc3ccc(NC(=O)c4ccc(C(F)(F)F)cc4)cn3)cc21` [Example 571, N-(6-{1-Methyl-2-[4-(4-[1,2,3]thiadiazol-4-ylbenzyl)piperazine-1-carbonyl]-1H-indol-6-yloxy}pyridin-3-yl)-4-trifluoromethyl-benzamide], for which the melting point is 220 to 220.8 °C. Also, the IC50 in data set [1] (Homo sapiens, 120 h) is less than 2 nM. In data set [2] (Homo sapiens, 120 h), this compound came in with an IC50 of less than 70 nM. Moreover, the half-maximal inhibitory concentration (IC50) in data set [3] (Homo sapiens, 120 h) was less than 10 nM.

`CCc1ccc(CN2CCN(C(=O)c3cc4cc(Oc5ccc(N(C)C(=O)c6ccc(C(F)(F)F)cc6)cn5)ccc4n3C)CC2)cc1.O=C(O)C(=O)O` [Example 391, N-(6-{2-[4-(4-Ethylbenzyl)piperazine-1-carbonyl]-1-methyl-1H-indol-5-yloxy}pyridin-3-yl)-N-methyl-4-trifluoromethylbenzamide oxalate] displayed a melting point of 167 to 169 °C. Further, the IC50 in data set [1] (Homo sapiens, 120 h) is less than 2 nM. Besides, the half-maximal inhibitory concentration (IC50) in data set [2] (Homo sapiens, 120 h) is less than 70 nM. In addition, the IC50 in data set [3] (Homo sapiens, 120 h) is less than 10 nM.

For the compound `Br.CC(C)Oc1ccc(CN2CCN(C(=O)c3cc4ccc(Oc5ccc(N(C)C(=O)c6ccc(C(F)(F)F)cc6)cn5)cc4n3C)CC2)cc1` [Example 421, N-(6-{2-[4-(4-Isopropoxybenzyl)piperazine-1-carbonyl]-1-methyl-1H-indol-6-yloxy}pyridin-3-yl)-N-methyl-4-trifluoromethyl-benzamide hydrobromide], the melting point was 251 to 253 °C. For the same compound, in the data set with STAT3, the IC50 is less than 10 nM.

For `CC(C)Oc1ccc(CN2CCN(C(=O)c3cc4ccc(Oc5ccc(N(C)S(=O)(=O)c6ccc(Cl)c(Cl)c6)cn5)cc4n3C)CC2)cc1` [Example 507, 3,4-Dichloro-N-(6-{2-[4-(4-isopropoxybenzyl)piperazine-1-carbonyl]-1-methyl-1H-indol-6-yloxy}pyridin-3-yl)-N-methyl-benzenesulfonamide], the melting point is 186.8 to 187 °C. The same compound had an IC50 in the data set on STAT3 of less than 10 nM.

As to `Br.CN(C(=O)c1ccc(C(F)(F)F)cc1)c1ccc(Oc2ccc3cc(C(=O)N4CCN(Cc5ccc(C#N)cc5)CC4)n(C)c3c2)nc1` [Example 321, N-(6-{2-[4-(4-Cyanobenzyl)piperazine-1-carbonyl]-1-methyl-1H-indol-6-yloxy}pyridin-3-yl)-N-methyl-4-trifluoromethylbenzamide hydrobromide], the melting point fell in the range of 267 to 270 °C. The IC50 in the data set on STAT3 is less than 10 nM.

As to `CCOc1ccc(CN2CCN(C(=O)c3cc4cc(Oc5ccc(N(C)C(=O)c6ccc(C(F)(F)F)cc6)cn5)ccc4n3C)CC2)nc1.O=C(O)/C=C\C(=O)O` [Example 417, N-(6-{2-[4-(5-Ethoxypyridin-2-ylmethyl)piperazine-1-carbonyl]-1-methyl-1H-indol-5-yloxy}pyridin-3-yl)-N-methyl-4-trifluoromethyl-benzamide maleate], the melting point lay in the range of 129 to 130 °C. The compound also registered a 50% inhibitory concentration (IC50) with STAT3 of less than 10 nM.

In the case of `Cc1ccc(S(=O)(=O)N(C)c2ccc(Oc3ccc4cc(C(=O)N5CCN(Cc6ccc(OC(C)C)cc6)CC5)n(C)c4c3)nc2)cc1` [Example 525, N-(6-{2-[4-(4-Isopropoxybenzyl)piperazine-1-carbonyl]-1-methyl-1H-indol-6-yloxy}pyridin-3-yl)-4,N-dimethylbenzenesulfonamide], the melting point was in the range of 140.9 to 145.8 °C. This compound also showed an IC50 in the data set on STAT3 of less than 10 nM.

Regarding `CN(C(=O)c1ccc(C(F)(F)F)cc1)c1ccc(Oc2ccc3c(c2)cc(C(=O)N2CCN(Cc4ccc(OC(F)(F)C(F)F)cc4)CC2)n3C)nc1.O=C(O)/C=C\C(=O)O` [Example 403, N-Methyl-N-[6-(1-methyl-2-{4-[4-(1,1,2,2-tetrafluoroethoxy)-benzyl]piperazine-1-carbonyl}-1H-indol-5-yloxy)pyridin-3-yl]-4-trifluoromethylbenzamide maleate], the melting point was in the range of 137 to 139 °C. This compound also came in with an IC50 in the data set with STAT3 of less than 10 nM.

The values above are taken from US8551999B2, “Heterocyclic compound and pharmaceutical composition thereof” (Otsuka Pharmaceutical Co., Ltd., priority 2007, dated 2013).
